The source of these data is ChEMBL document CHEMBL1127656, “Articulating a pharmacophore driven synthetic strategy: Discovery of a potent substance P antagonist” (Bioorg Med Chem Lett, 1994).

The target in the assay is Substance-P receptor (Homo sapiens, UniProt P25103). Kind of assay: In vitro binding affinity towards human NK-1 receptor in IM-9 cells using [3H]SP of substance P antagonist. It is filed as cell-based.
Substance-P receptor, sequence (P25103 whole entry): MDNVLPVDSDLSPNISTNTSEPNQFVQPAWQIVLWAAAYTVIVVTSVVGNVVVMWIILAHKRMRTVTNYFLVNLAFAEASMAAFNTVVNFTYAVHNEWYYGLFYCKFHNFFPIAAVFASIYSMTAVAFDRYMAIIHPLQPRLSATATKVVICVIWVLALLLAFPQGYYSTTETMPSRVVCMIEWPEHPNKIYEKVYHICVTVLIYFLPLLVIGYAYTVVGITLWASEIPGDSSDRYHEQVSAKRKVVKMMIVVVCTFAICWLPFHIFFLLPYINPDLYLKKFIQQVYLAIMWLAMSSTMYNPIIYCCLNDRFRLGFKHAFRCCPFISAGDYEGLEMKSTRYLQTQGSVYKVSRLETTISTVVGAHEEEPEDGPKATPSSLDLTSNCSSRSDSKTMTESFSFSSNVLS

On to `COc1ccccc1CN[C@H]1[C@@H]2CCC[C@@H]2N[C@H]1c1ccccc1` (racemic), for which the Ki stood at 2.4 nM.

For orientation: Ki means a measure of affinity in units of concentration, obtained from inhibition or displacement. The low end stands for a stronger hold on the target, the high end for a looser hold on the target.
